Series [1] deals with Cryptococcus yeast (CHY3833 and CHY3836). Briefly: Yeast replication secondary screen (OD600). The conditions noted are these: 10 μM, 12 h at 30°C. In kind it is cell-based, Cryptococcus neoformans serotype D (deneoformans). On the procedure: (ii) Yeast replication. CHY3833 and CHY3836 were each grown in YPD liquid overnight at 30°C to saturation and then resuspended in 0.5× YPD at an OD600 of 0.005. Strains were aliquoted into 384-well plates with inhibitors and grown for 12 h at 30°C at […] before OD600 readings were taken. Compounds that caused a >10% decrease in growth were considered yeast growth inhibitors.

Series [2] concerns normal human dermal fibroblasts (NHDF) cells. Briefly: Fibroblast cytotoxicity (CellTiter-Glo). The settings on record: 10 µM. In kind it is cell-based. The gist of the method: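 Normal human dermal fibroblasts, 1 × 10^3 per well, exposed to compounds at 10 μM for 72 h at 37°C. Viability read as ATP-dependent CellTiter-Glo luminescence. Dose-response runs titrated compounds from 80 μM to 0.5 μM in duplicate.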

As to `Cc1cc(C(=O)N2CCC(Oc3ncccc3Cl)CC2)c(C)o1` [compound 71798856], the “Yeast Inhibition: % Inhibition” value in series [1] came out at 54.8%. For the same compound, in series [2], the “Cytotoxicity: Relative Cell Viability (% of Negative Control)” value was 93.6 % of Negative Control.
In the same order, the values of `O=C(COc1ccccc1F)N1CCC(Oc2ncccc2Br)CC1` [compound 71799471] are 2.6% and 101.4 % of Negative Control.
As to `O=C(Nc1cnc(Oc2ccccc2)nc1)c1cccc(Cl)c1` [compound 71799766], the “Yeast Inhibition: % Inhibition” value in series [1] stood at 7.9%. In addition, the “Cytotoxicity: Relative Cell Viability (% of Negative Control)” value in series [2] is 99.9 % of Negative Control.
For `O=C1CC(c2cccs2)CC(=O)N1Cc1csc(-c2ccccc2)n1` [compound 71801965] the same measures were 3.9% and 95.9 % of Negative Control.
In the same order, the values of `Cc1cc(C)n(-c2nc(CCNC(=O)c3cc(C)oc3C)cs2)n1` [compound 71802096] are 42.7% and 103.6 % of Negative Control.
`Cc1cc(C(=O)NCC#CCOc2cccc(C(F)(F)F)c2)c(C)o1` [compound 71803023]: in series [1], the “Yeast Inhibition: % Inhibition” value came to 44.0%. Also, the “Cytotoxicity: Relative Cell Viability (% of Negative Control)” value in series [2] was 90.7 % of Negative Control.
For `O=S(=O)(NCC#CCOc1cccc(C(F)(F)F)c1)c1cccs1` [compound 71803055] the same measures were 7.0% and 63.8 % of Negative Control.
For `O=C(c1ccc(OC(F)(F)F)cc1)N(Cc1ccoc1)Cc1cccs1` [compound 71804107], in series [1], the “Yeast Inhibition: % Inhibition” value amounted to 7.9%. Moreover, the “Cytotoxicity: Relative Cell Viability (% of Negative Control)” value in series [2] is 94.0 % of Negative Control.
As for `O=C(CCc1ccccc1Br)N1CCC(c2cccs2)CC1` [compound 71807060], the “Yeast Inhibition: % Inhibition” value in series [1] is reported as 5.9%. The “Cytotoxicity: Relative Cell Viability (% of Negative Control)” value in series [2] is reported as 100.7 % of Negative Control.
For `O=C(CCc1ccccc1Br)N1CCC(c2ccsc2)CC1` [compound 71807075] the same measures were 9.6% and 93.1 % of Negative Control.
Turning to `O=C(Cc1ccc(F)cc1)N1CCN(c2nc(-c3ccsc3)cs2)CC1` [compound 71811049], in series [1], the “Yeast Inhibition: % Inhibition” value is 4.0%. In addition, the “Cytotoxicity: Relative Cell Viability (% of Negative Control)” value in series [2] is on record as 99.2 % of Negative Control.
With `Cc1cc(C(=O)NCCn2nc(C(F)(F)F)c3c2CCCC3)c(C)o1` [compound 72718563], the “Yeast Inhibition: % Inhibition” value in series [1] is listed as 79.7%. The “Cytotoxicity: Relative Cell Viability (% of Negative Control)” value in series [2] is on record as 92.0 % of Negative Control.
For `Cl.Fc1ccc(Nc2nc(-c3ccoc3)cs2)cc1F` [compound 72720194] the same measures were 29.6% and 70.6 % of Negative Control.
For `O=C(NC1CCN(c2nccs2)C1)c1nc2ccccc2s1` (stereo not drawn) [compound 76149097] the same measures were 10.4% and 94.5 % of Negative Control.
In the same order, the values of `O=C(C1CCC1)N1CCCCC(c2ccc(Cl)cc2)C1` (stereo not drawn) [compound 76150259] are -2.1% and 108.6 % of Negative Control.
Take `O=C(c1ccc2cc[nH]c2c1)N1CCCCC(c2ccc(Cl)cc2)C1` (stereo not drawn) [compound 76150266]: in series [1], the “Yeast Inhibition: % Inhibition” value was -14.0%. Further, the “Cytotoxicity: Relative Cell Viability (% of Negative Control)” value in series [2] is 92.9 % of Negative Control.
For `O=C(c1ccc2nsnc2c1)N1CCSC(c2ccccc2Cl)CC1` (stereo not drawn) [compound 76151751] the same measures were 14.7% and 97.8 % of Negative Control.
As for `O=C(c1cc2ccccc2s1)N1CCC(c2ccsc2)CC1` [compound 91624614], in series [1], the “Yeast Inhibition: % Inhibition” value is on record as -0.5%. Further, in series [2], the “Cytotoxicity: Relative Cell Viability (% of Negative Control)” value is recorded as 96.6 % of Negative Control.
